Measurements taken from publication PMC8989888, “Development of optimized drug-like small molecule inhibitors of the SARS-CoV-2 3CL protease for treatment of COVID-19” (Nature Communications, 2022).
Where “and” joins values, the source holds several entries; their conditions need not be identical. Equal values may be shown once. Read-outs that look alike come from different tables or passages of the source.

Columns and labels:
[1] = molecular target: T1, SARS-CoV-2 3CL protease (Severe acute respiratory syndrome coronavirus 2, UniProt P0DTD1); assay: biochemical; details: for Normalized SARS-CoV-2 3CL protease activity: 0.2 µM protease with 50 µM tested compound, replicates; for activity against SARS-CoV-2 3CL protease (in words): compound 4 analogs
[2] = molecular target: T1, SARS-CoV-2 3CL protease; type: biochemical; design: Avg: unit not given here; details: for Inhibition at 10 µM: 10 µM compound; for Inhibition at 100 µM: 100 µM compound; for IC50 / LogIC50: Figure S1 and S2
[3] = 200 nM protease, read-out: IC50
[4] = Conc 10 µM, average response of dose-response curve
[5] = Conc 15 µM, average response of dose-response curve
[6] = Conc 20 µM, average response of dose-response curve
[7] = Conc 50 µM, average response of dose-response curve
[8] = Conc 100 µM, average response of dose-response curve
[9] = Conc 200 µM, average response of dose-response curve
[10] = dose-response retest of fragment hits
[11] = dose-response curve of fragment hit
[12] = Conc 10 µM, mean response (inhibition) of dose-response curve
[13] = Conc 15 µM, mean response (inhibition) of dose-response curve
[14] = Conc 20 µM, mean response (inhibition) of dose-response curve
[15] = Conc 50 µM, mean response (inhibition) of dose-response curve
[16] = Conc 100 µM, mean response (inhibition) of dose-response curve
[17] = Conc 200 µM, mean response (inhibition) of dose-response curve

SMILES	Inhibition at 10 µM [2]	Inhibition at 100 µM [2]	Avg [2, 4]	Avg [2, 5]	Avg [2, 6]	Avg [2, 7]	Avg [2, 8]	Avg [2, 9]	IC50 [2, 11]	LogIC50 ([2]; log10 of IC50 in µM)	Avg [2, 12]	Avg [2, 13]	Avg [2, 14]	Avg [2, 15]	Avg [2, 16]	Avg [2, 17]	also measured
CC(C)(C)OC(=O)NC(CO)CC1CCNC1=O (stereo not shown) [AZVIII-30]	–	–	–	–	–	–	–	–	–	–	–	–	–	–	–	–	Normalized SARS-CoV-2 3CL protease activity [1]: 0.9915 and 0.9651 and 0.9186; IC50 [1, 3]: > 50 µM; activity against SARS-CoV-2 3CL protease (in words) [1]: did not produce active compounds
CCOC(=O)/C=C/[C@H](C[C@@H]1CCNC1=O)NC(=O)[C@H](CC(C)C)NC(=O)OC(C)(C)C [AZVIII-33B]	–	–	–	–	–	–	–	–	–	–	–	–	–	–	–	–	Normalized SARS-CoV-2 3CL protease activity [1]: 1.107 and 0.6918 and 1.159; IC50 [1, 3]: > 50 µM; activity against SARS-CoV-2 3CL protease (in words) [1]: inactive
CC(C)C[C@H](NC(=O)OC(C)(C)C)C(=O)N[C@H](CO)C[C@@H]1CCNC1=O [AZVIII-37A]	–	–	–	–	–	–	–	–	–	–	–	–	–	–	–	–	Normalized SARS-CoV-2 3CL protease activity [1]: 0.8312 and 1.007 and 1.0118; IC50 [1, 3]: > 50 µM; activity against SARS-CoV-2 3CL protease (in words) [1]: inactive
COC(=O)[C@H](C[C@@H]1CCNC1=O)NC(=O)OC(C)(C)C [AZVIII-38]	–	–	–	–	–	–	–	–	–	–	–	–	–	–	–	–	Normalized SARS-CoV-2 3CL protease activity [1]: 1.058 and 1.088 and 0.9126; IC50 [1, 3]: > 50 µM; activity against SARS-CoV-2 3CL protease (in words) [1]: did not produce active compounds
O=c1[nH]sc2ccccc12 [AZVIII-40A, 1,2-Benzisothiazol-3(2H)-one, reference compound]	–	–	–	–	–	–	–	–	–	–	–	–	–	–	–	–	IC50 ([1]; IC50): 0.79 µM
Nc1nccnc1S [Z1868316802]	21%	92%	20.5	24.1	32.6	92.3	91.8	82.9	–	–	–	–	–	–	–	–	IC50 [2, 10]: 23.3 µM; LogIC50 ([2]; log of IC50 in µM): 1.368
OCCc1cnc(S)nc1 [Z2064274637]	5%	100%	5.2	28.9	36.1	91.7	103	105.7	–	–	–	–	–	–	–	–	IC50 [2, 10]: 23.4 µM; LogIC50 ([2]; log of IC50 in µM): 1.369
CC1(C)C(=O)Nc2ccc(C(=O)CCl)cc21 [Z2160878465]	7%	97%	6.9	29.9	41.3	60	96.5	106.7	–	–	–	–	–	–	–	–	IC50 [2, 10]: 28.6 µM; LogIC50 ([2]; log of IC50 in µM): 1.456
O=C(CCl)c1csc(N2CCCCC2)n1 [Z2469673977]	51%	100%	51.4	56.3	64	57.3	102	104.1	–	–	–	–	–	–	–	–	–
CN1C(=O)CCc2cc(C(=O)CCl)ccc21 [Z2491497303]	6%	87%	5.9	25.5	13.7	51.4	86.8	97.7	–	–	–	–	–	–	–	–	IC50 [2, 10]: 48.8 µM; LogIC50 ([2]; log of IC50 in µM): 1.688
CN1Cc2cc(C(=O)CCl)ccc2NC1=O [Z2491497315]	16%	95%	15.7	35.9	38.8	78.6	95.1	102.1	24.2 µM	1.383	–	–	–	–	–	–	IC50 [2, 10]: 24.2 µM; LogIC50 ([2]; log of IC50 in µM): 1.383
O=C(CCl)N1CCN(Cc2ccsc2)CC1 [Z2650385668]	15%	86%	–	–	–	–	–	–	35.7 µM	1.553	14.7	16.7	31.9	63.6	86.4	96.9	–
Cc1ccccc1CN1CCCN(C(=O)CCl)CC1 [Z2651952322]	18%	91%	–	–	–	–	–	–	33.1 µM	1.52	17.5	31.4	33.6	62.8	90.5	99.5	–
N#Cc1ccnc(S)c1 [Z2687203952]	12%	100%	–	–	–	–	–	–	17.4 µM	1.241	11.5	33.9	67.8	111.2	107.8	106.7	–
Cc1cnc(=S)[nH]c1 [Z2768165643]	41%	100%	–	–	–	–	–	–	13 µM	1.114	41.2	59.8	69.1	106.7	109.4	108.2	–
O=C(CCl)c1ccc(F)c(C(=O)CCl)c1 [Z2768504793]	3%	63%	–	–	–	–	–	–	50.2 µM	1.7	3.4	11.1	34.1	48.5	62.9	79.1	–
C=CS(=O)(=O)c1nc2ccccc2s1 [Z3228044564]	73%	100%	–	–	–	–	–	–	–	–	73.2	84.2	91.1	103.1	104	112.9	–
O=C(CCl)COc1ccc(Cl)cc1 [Z3236282166]	48%	100%	–	–	–	–	–	–	11.5 µM	1.059	47.7	63.9	86.8	98.6	103.3	106	–
CN(C)C(=O)c1csc(C(=O)CCl)c1 [Z3244705145]	24%	89%	–	–	–	–	–	–	35.9 µM	1.555	23.6	22.7	40.5	58.7	89	99.3	–
